Laboratory results: publication PMC10287695, “Non-covalent inhibitors of thioredoxin glutathione reductase with schistosomicidal activity in vivo” (Nature Communications, 2023)
Marks after values point to notes of the source that are not given here.

Experiments:
S. mansoni TGR = target: T1, S. mansoni TGR (Schistosoma mansoni, UniProt Q962Y6); test: S. mansoni TGR enzyme inhibition (DTNB reduction); assay type: biochemical
T1 construct: made in house
T1 sequence (Q962Y6 1-598): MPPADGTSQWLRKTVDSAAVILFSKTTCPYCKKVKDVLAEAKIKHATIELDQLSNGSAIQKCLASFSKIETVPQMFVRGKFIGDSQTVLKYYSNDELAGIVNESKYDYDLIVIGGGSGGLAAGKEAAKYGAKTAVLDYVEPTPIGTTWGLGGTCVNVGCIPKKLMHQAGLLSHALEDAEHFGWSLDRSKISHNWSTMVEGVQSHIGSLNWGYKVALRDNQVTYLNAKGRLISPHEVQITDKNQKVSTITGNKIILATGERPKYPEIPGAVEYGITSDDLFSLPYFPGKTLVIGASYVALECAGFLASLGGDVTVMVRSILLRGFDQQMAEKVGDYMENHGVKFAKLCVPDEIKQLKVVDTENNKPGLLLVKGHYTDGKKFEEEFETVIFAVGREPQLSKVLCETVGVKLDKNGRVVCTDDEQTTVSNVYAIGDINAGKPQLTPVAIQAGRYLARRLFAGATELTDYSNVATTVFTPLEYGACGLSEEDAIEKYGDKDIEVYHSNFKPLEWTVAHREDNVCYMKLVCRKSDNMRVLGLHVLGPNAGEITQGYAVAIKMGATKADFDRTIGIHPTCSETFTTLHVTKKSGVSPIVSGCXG

Human TrxR1 = target: T2, Human TrxR1 (Homo sapiens, UniProt Q16881); test: Human TrxR1 enzyme inhibition (DTNB reduction); assay type: biochemical; settings: for IC50: 15 min preincubation (enzyme + 100 µM NADPH + compound), read-out: Human TrxR1 IC50
T2 construct: made in house
T2 sequence (Q16881 1-499 isoform Q16881-5): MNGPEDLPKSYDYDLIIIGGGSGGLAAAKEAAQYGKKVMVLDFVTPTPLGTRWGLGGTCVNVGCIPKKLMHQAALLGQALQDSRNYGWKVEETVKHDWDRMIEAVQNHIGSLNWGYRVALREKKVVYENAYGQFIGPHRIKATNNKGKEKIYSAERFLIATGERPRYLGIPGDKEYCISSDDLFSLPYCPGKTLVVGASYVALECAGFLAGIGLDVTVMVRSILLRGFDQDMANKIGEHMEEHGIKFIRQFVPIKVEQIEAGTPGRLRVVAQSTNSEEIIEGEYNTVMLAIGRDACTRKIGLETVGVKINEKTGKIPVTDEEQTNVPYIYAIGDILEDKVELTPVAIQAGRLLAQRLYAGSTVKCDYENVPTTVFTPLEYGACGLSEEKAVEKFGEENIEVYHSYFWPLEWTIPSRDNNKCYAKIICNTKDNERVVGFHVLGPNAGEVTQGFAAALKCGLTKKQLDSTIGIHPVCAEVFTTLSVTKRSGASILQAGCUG

[1] = tested on: S. mansoni newly transformed schistosomula (NTS); test: Schistosomicidal activity ex vivo, NTS (Cell Titer Glo); assay type: cell-based; settings: for LD50 ex vivo S. mansoni NTS: 24 h exposure, Cell TiterGlo; for % viability: S. mansoni NTS
Procedure, shortened: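 Viability, expressed relative to DMSO-treated worms, was measured as ATP content (Cell Titer Glo) after 24 or 72 h of compound exposure in triplicate. Mechanically transformed S. mansoni NTS were cultured at 240 per well in M199 with glucose and 5% FBS at 37 °C; DMSO <1%, AF 5 µM as positive control.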

Vero cells = test: Cytotoxicity in mammalian cells (Cell Titer Glo); assay type: cell-based
Method: Following overnight incubation, formulated DMSO-compound stock solutions were diluted with DMEM at <1% DMSO final concentrations. […] Vero cells treated similarly with different concentrations of PZQ, MZM and AF (Cayman Chemicals) were used as positive controls.

| SMILES | IC50 (S. mansoni TGR; 15 min preincubation (enzyme + 100 µM NADPH + compound)) [µM] | IC50 (Human TrxR1) [µM] | LD50 ex vivo S. mansoni NTS [1] [µM] | % viability ([1]; Conc. 0.25 µM) [%] | % viability ([1]; Conc. 0.5 µM) [%] | % viability ([1]; Conc. 1 µM) [%] | % viability ([1]; Conc. 2 µM) [%] | % viability ([1]; Conc. 5 µM) [%] | % viability (Vero cells; 0.5 µM) [%] | % viability (Vero cells; 1 µM) [%] | % viability (Vero cells; 5 µM) [%] | % viability (Vero cells; 10 µM) [%] | % viability (Vero cells; 20 µM) [%] | % viability (Vero cells; 30 µM) [%] | LD50 ex vivo VERO (Vero cells; 24-hour exposure) [µM] | inhibition at 66.7 µM (S. mansoni TGR; 6 h preincubation (enzyme + 100 µM NADPH + compound), read-out: S. mansoni TGR inhibition (%) at 66.7 µM) [%] | inhibition at 66.7 µM (Human TrxR1; 66.7 µM, 6 h preincubation, read-out: Human TrxR1 IC50 (µM) or inhibition (%) at 66.7 µM: inhibition) [%] | LD50 ex vivo VERO (Vero cells; African green monkey, 24 h) |
| --- | --- | --- | --- | --- | --- | --- | --- | --- | --- | --- | --- | --- | --- | --- | --- | --- | --- | --- |
| CC(=O)OC[C@H]1O[C@@H]([S-])[C@H](OC(C)=O)[C@@H](OC(C)=O)[C@@H]1OC(C)=O.CCP(CC)CC.[Au+] [AF, auranofin, reference compound] | 0.007 | 0.02 | 0.31 ± 0.02 | 60.0497 | 36.3261 | 18.3613 | 10.7245 | 0.4904 | 57.3284 | 33.3378 | 0.2783 | 0.2356 | 0.164 | 0.07463 | 0.59 ± 0.11 | – | – | – |
| Cc1oc(-c2ccc3ccccc3c2)nc1CNC1CCCCCC1 [Compound 5] | – | > 66.7 | 5.8 ± 0.15 | – | – | – | – | – | – | – | – | – | – | – | – | 73 | 28.5 | >50^a µM |
